According to PubChem BioAssay (NCI):
Where “and” joins values, the source holds several entries; their conditions need not be identical. Identical values can stand only once.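 48-hour exposure; five concentrations; linearly interpolated endpoints. GI50: concentration for 50% inhibition of growth. TGI: total growth inhibition.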

Legend:
Assay in all cases: NCI anticancer screen, dose series, 48 h
NCI-H522 lung = system: NCI-H522 lung
SF-268 CNS = system: SF-268 CNS
A498 renal = system: A498 renal
MDA-N = system: MDA-N
ACHN renal = system: ACHN renal
M14 melanoma = system: M14 melanoma
HCT-15 colon = system: HCT-15 colon
SW-620 colon = system: SW-620 colon
NCI-H460 lung = system: NCI-H460 lung
T-47D breast = system: T-47D breast
CCRF-CEM leukemia = system: CCRF-CEM leukemia

Structure (SMILES) | TGI (NCI-H522 lung) | TGI (SF-268 CNS) [µM] | TGI (A498 renal) | TGI (MDA-N) [µM] | TGI (ACHN renal) [µM] | TGI (M14 melanoma) [µM] | TGI (HCT-15 colon) [µM] | TGI (SW-620 colon) [µM] | TGI (NCI-H460 lung) [µM] | TGI (T-47D breast) | TGI (CCRF-CEM leukemia) [µM] | GI50 (NCI-H522 lung) | GI50 (MDA-N)
COc1ccc(Nc2c(C#N)c3n(c4ccccc24)c2ccccc2[n+]3C)cc1OC | 16 µM | 8.25 | 20.4 µM | 7.21 | 7.86 | 8.01 | 6.5 | 15.7 | 6.46 | > 36.9 µM | > 100 |  | 
CC[C@@H]1CC[C@@H]2[C@H](CC[C@]3(C)[C@@H](O)CC[C@@H]23)[C@H]1C(=O)O | > 100 µM | > 100 | > 100 µM | > 100 | > 100 | > 100 | > 100 | > 100 | > 100 | > 100 µM | > 100 |  | 
Cc1cn(C2CC(N)C(CN)O2)c(=O)[nH]c1=O (centres undefined) | > 100 µM | > 100 | > 100 µM | > 100 | > 100 | > 100 | > 100 | > 100 | > 100 | > 100 µM | > 100 |  | 
COc1ccc(-c2c(C#N)c(S)n(C3OC(COC(C)=O)C(OC(C)=O)C(OC(C)=O)C3OC(C)=O)c(=O)c2C#N)cc1 (centres undefined) | > 100 µM and 65.4 µM | > 100 | 90.5 µM and 77.3 µM | > 100 | > 100 | > 100 | > 100 | > 100 | > 100 | > 100 µM and 52.5 µM | > 100 | 88.4 µM and 29.7 µM | > 100 µM and 34.8 µM
COc1ncc(C=C(C#N)C#N)c(OC)n1 | 45.4 µM | > 100 | > 100 µM | 92.6 | > 100 | 40.9 | > 100 | > 100 | > 100 | > 100 µM | 32.6 |  | 
CCN(CC)CCOC(c1cc(OC)ccc1OC)c1ccc2n1-c1ccccc1OC2 (centres undefined) | 30 µM | 28.8 | 24.1 µM | 26.5 | 26.7 | 33.2 | 23.6 | 21.1 | 26.2 | 51.3 µM | 17.2 |  | 
Cc1sc2nc3n(c(=O)c2c1C)N=CN(c1ccccc1)C3 | > 100 µM | > 100 | > 100 µM | > 100 | > 100 | > 100 | > 100 | > 100 | > 100 | > 100 µM | > 100 |  | 
CCOC(=O)c1cc(C2(O)CCN(Cc3ccccc3)C2=O)c(-c2cc(C)no2)[nH]1 (centres undefined) | 43.3 µM | > 100 | > 100 µM | > 100 | > 100 | > 100 | > 100 | > 100 | > 100 | 74.8 µM | > 100 |  | 
CC(=O)NC1C(OCc2ccccc2)OC(CO)C(O)C1OCC(=O)N[C@@H](C)C(=O)N[C@H](CCC(=O)NCCNCCNc1c2ccccc2nc2cccc([N+](=O)[O-])c12)C(N)=O (some centres undefined) | 28.1 µM |  | 48.1 µM | > 100 | 79.6 | > 100 | > 100 | > 100 | 36.5 | > 100 µM | > 100 |  | 
Oc1ccccc1C(c1cc2c(cc1O)OCO2)N1CCOCC1 (centres undefined) | 24.3 µM | 36.9 | 42.2 µM | 37.6 | 31.5 | 34.3 | 36.8 | 70.8 | 72.7 | 33.8 µM | 5.26 |  | 
Clc1nc(Cl)nc(NC23CC4CC(CC(C4)C2)C3)n1 | 30.9 µM | 38.2 | > 58.3 µM | 35.3 | > 57.7 | 33.6 | 31.7 | 31.5 | 60.4 | 42.6 µM | 23.1 |  | 
Cc1ccc(N=Nc2c3c(c(O)c4ccccc24)CCC(C)(C)O3)cc1 | > 100 µM | > 100 | 38.6 µM | 14.1 | 62.1 | 32.6 | 67.3 | > 100 | 32.8 | 60.3 µM | 39.6 |  | 
CCOP(=O)(OCC)[C@H](O)c1ccsc1 | > 100 µM | > 100 | > 100 µM | > 100 | > 100 | > 100 | > 100 | > 100 | > 100 | > 100 µM | > 100 |  | 
O=C1CC(c2ccco2)C2(C(=O)NC(=O)NC2=O)C(c2ccco2)C1 (centres undefined) | > 75 µM | > 75 | > 75 µM | > 75 | > 75 | > 75 | > 75 | > 75 | > 75 | > 75 µM | > 75 |  | 
COc1ccc(-c2c(C#N)c(N)n(C3OC(CO)C(O)C(O)C3O)c(=S)c2C#N)cc1 (centres undefined) | > 100 µM | > 100 | > 100 µM | > 100 | > 100 | > 100 | > 100 | > 100 | > 100 | > 100 µM | > 100 | 34.4 µM and 13.2 µM | 
COc1ccc(N2C(=O)C3c4[nH]c5ccc([N+](=O)[O-])cc5c4C4CCC(C(C)(C)C)CC4C3C2=O)cc1 (centres undefined) | > 100 µM | > 100 | 7.56 µM | > 100 | 63.6 | > 100 | > 100 | > 100 | 63.9 | > 100 µM | > 100 |  | 
CCOC(=O)c1sc2nc(SC)nc3c2c1N=CN3c1ccc(Br)cc1 | > 100 µM |  | > 100 µM | > 100 | > 100 | > 100 | > 100 | > 100 | > 100 | > 100 µM | > 100 |  | 

Structure (SMILES) | TGI (NCI-H522 lung) | TGI (SF-268 CNS) [µM] | TGI (A498 renal) | TGI (MDA-N) [µM] | TGI (ACHN renal) [µM] | TGI (M14 melanoma) [µM] | TGI (HCT-15 colon) [µM] | TGI (SW-620 colon) [µM] | TGI (NCI-H460 lung) [µM] | TGI (T-47D breast) | TGI (CCRF-CEM leukemia) [µM] | GI50 (NCI-H522 lung) | GI50 (MDA-N)
COC(=O)C1(Cc2ccccc2)Cc2cc3c(cc2C1=O)CCC3 (centres undefined) | 64.2 µM | > 100 | 82 µM | 37.3 | > 100 | 57.6 | > 100 | > 100 | 35 | 66.6 µM | 52.9 |  | 
c1cc(-c2cnc(-c3ccc4c(c3)CCCO4)o2)ccn1 | 23.4 µM | 33.2 | 25.8 µM | 27.8 | 37.9 | 33 | 31.6 |  |  | 47.2 µM | 29.7 |  | 
Cc1ccc2c(c1C)CC1(Cc3c(ccc4c3CCC4)C1=O)C2=O (centres undefined) | > 100 µM | > 100 | > 100 µM | > 100 | > 100 | > 100 | > 100 | > 100 | > 100 | > 100 µM | > 100 |  | 
Cc1cc(-c2nc3ccccc3s2)ccc1NS(=O)(=O)O | > 67.3 µM | > 100 | > 100 µM | > 100 | > 100 | > 100 | > 100 | > 100 | > 100 | > 100 µM | > 100 |  | 
COc1ccc(Nc2[nH]c(C(C)=O)c(N)c2C(=S)Nc2ccccc2)cc1 | > 100 µM | > 100 | > 100 µM | > 100 | > 100 | 69.3 | > 100 | > 100 | > 100 | > 100 µM | > 100 |  | 
O=C1CC2C=CC(O)C(C1)C2 (centres undefined) | > 100 µM | > 100 | > 100 µM | > 100 | > 100 | > 100 | > 100 | > 100 | > 100 | > 100 µM | > 100 |  | 
CCOC(=O)c1cc(=C2\CCN(CC(C)CC)C2=S)/c(=C(/O)CC)[nH]1 (centres undefined) | 36.4 µM | 46.3 | 29 µM | 28.2 | 28.9 |  | 25.8 | 25.9 | 40.8 | 30.9 µM | 21.7 |  | 
CC(C)=CCN1CC(C)C(=O)Nc2cc(Cl)ccc21 (centres undefined) | 73.3 µM | > 100 | > 100 µM | 54.6 | 67.5 | 43.3 | 80.6 | 67.9 | 40.7 | > 100 µM | > 100 |  | 
COc1ccc2c(c1)c1c(n2CCN2CCOCC2)-c2ccccc2CC1 | > 100 µM | > 100 | > 100 µM | > 100 | > 100 | > 100 | > 100 | > 100 | 89.2 | > 100 µM | 69.5 |  | 
CCOc1ccc(N/C(=C(/C(Cl)=C(/Cl)NCCN)[N+](=O)[O-])n2nnc3ccccc32)cc1 |  | 34.5 | > 100 µM | > 100 | 43.8 | > 100 | 38 | 21.6 | > 100 | > 100 µM | > 100 |  | 
COc1cc(COC(=O)N[C@H](C(=O)O)C(C)(C)C)c([N+](=O)[O-])cc1OC |  | > 100 | > 100 µM | > 100 | > 100 | > 100 | > 100 | > 100 | > 100 | > 100 µM | > 100 |  | 
C=CC(=O)c1ccc2c(c1)OCCOCCOCCOCCOCCO2 | 24.7 µM | > 92.8 | > 100 µM | > 100 | 31.9 | 41.6 | 39.2 | 35.2 | > 100 | 59.4 µM | > 100 |  | 
O=C1CC(C(O)CO)CC(=O)N1 (centres undefined) | > 100 µM | > 100 | > 100 µM | > 100 | > 100 | > 100 | > 100 | > 100 | > 100 | > 100 µM | > 100 |  | 
Cc1ccc(-c2cc(N)n(-c3nc4c([nH]3)c(=O)n(C)c(=O)n4C)n2)cc1 | > 100 µM | 34.5 | 21 µM | > 100 | 10.7 | 24.4 | 18.6 |  | 18.4 | 23.6 µM | > 100 |  | 
c1cc2nnc1SCCSCCSc1ccc(nn1)SCCSCCS2 | > 100 µM | > 100 | > 100 µM | > 100 | > 100 | > 100 | > 100 | > 100 | > 100 | > 100 µM | > 100 |  | 
CCOC(=O)c1cc2c([N+](=O)[O-])c(NC(C)=O)ccc2s1 | > 100 µM | > 100 | > 100 µM | > 100 | > 100 | > 100 | > 100 | > 100 | > 100 | 61.2 µM | > 100 |  | 
Cc1cccc(N2C(=O)C3ON(C(C(N)=O)c4ccccc4)C(c4c5ccccc5c(Cl)c5ccccc45)C3C2=O)c1C (centres undefined) | > 50 µM | 27.3 | 32.2 µM | 10 | 19.7 | 16.1 | 22 | > 50 | 21.6 | 32.1 µM | > 50 |  | 
